Measurements as given in patent US10132029B2, “Method for reducing adhesion of microorganisms to fabrics” (priority 2013, dated 2018).

Test system: Staphylococcus aureus
Experiment: Antimicrobial activity of coated polyester fabric samples as per JIS L 1902
Format: cell-based
Conditions: for Antimicrobial activity[log] Unwashed: 18 hours at 37° C.
Protocol: The procedure here is that the fabric sample was inoculated with a defined amount of a microbial suspension (inoculum). Test specimens with a weight of approximately 0.4 g were investigated in a triplicate determination.
The inoculated fabric sample was incubated in a closed system at 37° C. over a period of 18 hours. Following incubation, the bacteria of a defined amount of a dilution solution were recorded. The difference in the bacterial count of the fabric sample at 0 hours in comparison to the fabric sample after 18 hours served as a basis for evaluation. The antimicrobial activity is reported as a logarithmic or percentage value. Here, a reduction in the microbe count of 0% corresponds to inadequate antimicrobial action, a microbe reduction in the range from 0.1 to less than 90% to an inadequate antibacterial action, and a microbe reduction of greater than 90% to a good antibacterial action.

[1] = coating concentration 0.001 % based on fabric
[2] = coating concentration 0.01 % based on fabric
[3] = coating concentration 0.1 % based on fabric

Molecule | Antimicrobial activity[log] Unwashed [1] | Antimicrobial activity[log] Washed once at 30° C., without detergent [1] | Antimicrobial activity[log] Washed twice with water [1] | Antimicrobial activity[log] Unwashed [2] | Antimicrobial activity[log] Washed once at 30° C., without detergent [2] | Antimicrobial activity[log] Washed twice with water [2] | Antimicrobial activity[log] Unwashed [3] | Antimicrobial activity[log] Washed once at 30° C., without detergent [3] | Antimicrobial activity[log] Washed twice with water [3]
CO[Si](CCCN(CCN(CC(=O)[O-])CC(=O)[O-])CC(=O)[O-])(OC)OC.[Na+].[Na+].[Na+] [S5, N-(trimethoxysilylpropyl)ethylenediaminetriacetyl acid, trisodium salt] | 0.5 log | −0.3 log | 0.9 log | −0.3 log | −0.6 log | −0.2 log | −0.5 log | −0.6 log | −0.4 log
N-(triethoxysilylpropyl)-O-polyethylene oxide-urethane, (4-6 EO units) [S3] | −0.5 log | −0.8 log | −0.3 log | −0.1 log | −0.1 log | 0.8 log | 0.0 log | −0.4 log | 0.3 log
